Measurements taken from patent publication US10526292B2 (Parion Sciences, Inc., priority 2012, dated 2020).

What was measured:
[1] = target: Muc5B (Homo sapiens, UniProt Q9HC84); settings: in vitro; cited from earlier work
[2] = In vitro drug metabolism: plasma stability, rabbit; type: in vitro ADME; settings: 2.5 μM, 37° C., up to six hours
Description: (§1) The metabolic stability of 9 and 15 was assessed in plasma (rat, rabbit, dog and human) and hepatocytes (rat and dog). Compounds were added either directly to plasma or to hepatocyte suspensions at a final concentration of 2.5 or 10 μM, respectively, and incubated at 37° C. for up to six hours. Aliquots were removed at various time points and quenched. The amount of parent compound was quantified via UPLC-fluorescence analysis. The amount of parent compound remaining was calculated based on the total peak area at the time of sampling divided by the total peak area at initiation.

[3] = In vitro drug metabolism: summary in words for plasma and hepatocytes among the species evaluated; type: in vitro ADME; settings: plasma (rat, rabbit, dog, human) and hepatocytes (rat, dog)
Description: as §1

[4] = In vitro drug metabolism: hepatocyte stability, dog; type: in vitro ADME; settings: dog hepatocyte suspension, 10 μM, 37° C., up to six hours
Description: as §1

[5] = In vitro drug metabolism: plasma stability, dog; type: in vitro ADME; settings: 2.5 μM, 37° C., up to six hours
Description: as §1

[6] = In vitro drug metabolism: hepatocyte stability, rat; type: in vitro ADME; settings: rat hepatocyte suspension, 10 μM, 37° C., up to six hours
Description: as §1

[7] = Confocal microscopy assay of amiloride congener transport; type: in vitro ADME; settings: applied to apical (epithelial) surface of mouse corneas, one hour at 37 C
Excerpt: Serial x-y images were obtained one hour post-drug addition by confocal microsopy.

[8] = In vitro drug metabolism: plasma stability, rat; type: in vitro ADME; settings: 2.5 μM, 37° C., up to six hours
Description: as §1

[9] = In vitro drug metabolism: plasma stability, human; type: in vitro ADME; settings: 2.5 μM, 37° C., up to six hours
Description: as §1

[10] = system: ExLac rats; assay: Tear volume in rat model of dry eye disease (lacrimal gland excision, ExLac Model); type: in vivo, Sprague Dawley rats; settings: 5 μl test article solution per eye, tear volume by ZoneQuick thread over 6 h
Description: The effects of compounds on tear volume was assessed in a rat model of dry eye disease in which Sprague Dawley rats undergo surgical lacrimal gland excision (ExLac Model) to reduce normal tear volume. The lacrimal excision reduces normal tear volume by ˜50% (Table 2).
Both the ipsilateral and contralateral eyes were dosed with 5 μl of test article solution. Tear production was measured using the ZoneQuick cotton thread with impregnated phenol red dye. The folded end of the thread was held in the lateral-ventral conjunctival cul-de-sac for 10 seconds. The length of tear wicking onto the thread was determined by measuring the length of the thread that changes color from yellow to red. Use of a stereomicroscope was assist in the accurate measurement (recorded in millimeters) of the wicking/color change. Tear volume was assessed pre-dose, and 15, 30, 60, 120, and 360 minute post-dose. For reference, the effect of a saline vehicle is shown for ExLac rats and normal (no lacrimal excision surgery) rats.

Compound | Concentration required to fully reduce Muc5B [1] | Plasma Stability (amount of parent compound remaining) [2] | Stability towards metabolic hydrolysis in plasma and hepatocytes [3] | Hepatocyte Stability (amount of parent compound remaining) [4] | Plasma Stability (amount of parent compound remaining) [5] | Hepatocyte Stability (amount of parent compound remaining) [6] | Penetration of the cornea (confocal x-z image, FIG. 16) [7] | Plasma Stability (amount of parent compound remaining) [8] | Plasma Stability (amount of parent compound remaining) [9] | 6 h Ocular Hydration (AUC0-6) [10]
CC(=O)N[C@@H](CS)C(=O)O [NAC, N-acetyl cysteine] | 200 mM |  |  |  |  |  |  |  |  | 
N=C(N)NCCCC[C@@H](N)C(=O)NCCCN(CCCNC(=O)[C@H](N)CCCCNC(=N)N)CCOc1ccc(CCCCNC(=N)NC(=O)c2nc(Cl)c(N)nc2N)cc1 [Compound 9, (2R,2′R)—N,N′-(3,3′-(2-(4-(4-(3-(3,5-diamino-6-chloropyrazine-2-carbonyl)guanidino)butyl)phenoxy)ethylazanediyl)bis(propane-3,1-diyl))bis(2-amino-6-guanidinohexanamide)] |  | 89% | stable towards metabolic hydrolysis | 94% | 103% | 100% | remains associated with the apical (epithelial) surface | 87% | 101% | 50.2
